Data taken from paper PMC5509055 (Prostaglandins & other lipid mediators, 2017).
Counter-ions that a name gives are not always drawn.

How the values were obtained:
[1] = molecular target: T1, sphingosine kinase 2 (SK2) (Homo sapiens, UniProt Q9NRA0); test: fluorescent NBD-sphingosine kinase assay with recombinant human SK2; assay type: biochemical
T1 sequence (Q9NRA0 1-654): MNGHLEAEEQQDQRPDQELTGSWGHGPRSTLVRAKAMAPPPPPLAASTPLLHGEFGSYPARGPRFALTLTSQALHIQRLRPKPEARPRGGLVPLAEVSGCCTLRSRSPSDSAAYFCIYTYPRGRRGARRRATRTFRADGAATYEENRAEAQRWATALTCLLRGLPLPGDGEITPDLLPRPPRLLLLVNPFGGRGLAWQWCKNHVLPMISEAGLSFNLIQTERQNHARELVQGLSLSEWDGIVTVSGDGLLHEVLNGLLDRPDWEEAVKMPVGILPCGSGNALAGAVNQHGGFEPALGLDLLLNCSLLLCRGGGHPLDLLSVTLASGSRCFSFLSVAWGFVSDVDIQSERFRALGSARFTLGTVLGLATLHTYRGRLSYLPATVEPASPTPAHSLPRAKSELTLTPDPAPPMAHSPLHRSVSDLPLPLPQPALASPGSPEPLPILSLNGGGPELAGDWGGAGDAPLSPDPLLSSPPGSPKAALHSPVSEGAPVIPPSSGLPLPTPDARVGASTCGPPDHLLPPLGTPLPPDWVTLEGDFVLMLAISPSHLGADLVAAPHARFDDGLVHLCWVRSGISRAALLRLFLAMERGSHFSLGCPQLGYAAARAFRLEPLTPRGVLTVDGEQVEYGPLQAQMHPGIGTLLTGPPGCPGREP

[2] = molecular target: sphingosine kinase 1 (SK1) (Homo sapiens, UniProt Q9NYA1); test: fluorescent NBD-sphingosine kinase assay with recombinant human SK1; assay type: biochemical
Chain of sphingosine kinase 1 (SK1) (Q9NYA1 whole entry): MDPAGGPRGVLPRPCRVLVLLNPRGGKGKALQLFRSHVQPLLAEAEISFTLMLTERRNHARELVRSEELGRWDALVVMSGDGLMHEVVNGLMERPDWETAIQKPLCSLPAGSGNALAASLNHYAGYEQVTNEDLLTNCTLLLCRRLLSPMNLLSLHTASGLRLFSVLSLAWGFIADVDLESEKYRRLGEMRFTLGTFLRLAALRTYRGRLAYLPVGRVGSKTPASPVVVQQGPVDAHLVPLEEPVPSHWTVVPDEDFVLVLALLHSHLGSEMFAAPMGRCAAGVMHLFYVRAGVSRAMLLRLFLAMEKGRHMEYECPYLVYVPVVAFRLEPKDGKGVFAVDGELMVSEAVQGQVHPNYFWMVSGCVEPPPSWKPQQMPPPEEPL

- IC50 [1]: ~57 µM
- IC50 [2]: ~5.5 µM
Structure (SMILES): CCCCCCCCCCCCC/C=C/[C@H](O)[C@@H](CO)NC(=N)N [LCL351, L-erythro-2-N-(1′-carboxamidino)-sphingosine hydrochloride]
